Source: patent publication US20230218563A1, “METHODS FOR TREATING OR PREVENTING CHRONIC KIDNEY DISEASE” (Arthrosi Therapeutics, Inc., priority 2020, published 2023)

System: serum uric acid (sUA)
Experiment: Phase 1 single dose study, pharmacodynamics (serum uric acid) in healthy adult males
Assay type: in vivo, human
Procedure: The dose groups included Cohort 1 (15 mg or placebo, fasted, oral suspension), Cohort 2 (50 mg or placebo, fasted, suspension), Cohort 3 (100 mg or placebo, fasted, oral suspension), Cohort 4 (150 mg or placebo, fasted, oral suspension), Cohort 6 (50 mg or placebo, fed, oral suspension), and Cohort 7 (50 mg or placebo, fasted, oral capsule). […] An additional 8 subjects received placebo.
Decrease in sUA appeared to reach a plateau at 100 mg or lower.

[1] = 15 mg single oral, fasted, 12 h
[2] = 15 mg single oral, fasted, 30 h
[3] = 15 mg single oral, fasted, 36 h
[4] = 15 mg single oral, fasted, 48 h
[5] = 15 mg single oral, fasted, 54 h
[6] = 15 mg single oral, fasted, 60 h
[7] = 15 mg single oral, fasted, 72 h
[8] = 15 mg single oral, fasted, 96 h
[9] = 15 mg single oral, fasted, 120 h
[10] = 50 mg single oral, fasted, Capsule, 6 h
[11] = 50 mg single oral, fasted, Capsule, 12 h
[12] = 50 mg single oral, fasted, Capsule, 24 h
[13] = 50 mg single oral, fasted, Capsule, 30 h
[14] = 50 mg single oral, fasted, Capsule, 36 h
[15] = 50 mg single oral, fasted, Capsule, 48 h
[16] = 50 mg single oral, fasted, Capsule, 54 h
[17] = 50 mg single oral, fasted, Capsule, 60 h
[18] = 50 mg single oral, fasted, Capsule, 72 h
[19] = 50 mg single oral, fasted, Capsule, 96 h
[20] = 50 mg single oral, fasted, Capsule, 120 h
[21] = 50 mg single oral, fasted, 12 h
[22] = 50 mg single oral, fasted, 24 h
[23] = 50 mg single oral, fasted, 30 h
[24] = 50 mg single oral, fasted, 36 h
[25] = 50 mg single oral, fasted, 48 h
[26] = 50 mg single oral, fasted, 54 h
[27] = 50 mg single oral, fasted, 60 h
[28] = 50 mg single oral, fasted, 72 h
[29] = 50 mg single oral, fasted, 96 h
[30] = 50 mg single oral, fasted, 120 h
[31] = 100 mg single oral, fasted, 6 h
[32] = 100 mg single oral, fasted, 12 h
[33] = 100 mg single oral, fasted, 24 h
[34] = 100 mg single oral, fasted, 30 h
[35] = 100 mg single oral, fasted, 36 h
[36] = 100 mg single oral, fasted, 48 h
[37] = 100 mg single oral, fasted, 54 h
[38] = 100 mg single oral, fasted, 60 h
[39] = 100 mg single oral, fasted, 72 h
[40] = 100 mg single oral, fasted, 96 h
[41] = 100 mg single oral, fasted, 120 h
[42] = 150 mg single oral, fasted, 6 h
[43] = 150 mg single oral, fasted, 12 h
[44] = 150 mg single oral, fasted, 24 h
[45] = 150 mg single oral, fasted, 30 h
[46] = 150 mg single oral, fasted, 36 h
[47] = 150 mg single oral, fasted, 48 h
[48] = 150 mg single oral, fasted, 54 h
[49] = 150 mg single oral, fasted, 60 h
[50] = 150 mg single oral, fasted, 72 h
[51] = 150 mg single oral, fasted, 96 h
[52] = 150 mg single oral, fasted, 120 h
[53] = single oral dose, 50 mg or higher, fasted

[2H]c1c([2H])c([2H])c2c(C(=O)c3cc(Br)c(O)c(Br)c3)c(C(C)O)oc2c1[2H] (racemic) [Compound 1, (3,5-dibromo-4-hydroxyphenyl)(2-(1-hydroxyethyl)benzofuran-3-yl-4,5,6,7-d4)methanone]
Percent change in serum uric acid, mean, time-matched (Day-1) baseline (15 mg single oral, fasted, 6 h): 2.7%
Serum uric acid, mean (15 mg single oral, fasted, 6 h): 5.4 mg/dL
Percent change in serum uric acid, mean, time-matched (Day-1) baseline [1]: 8.7%
Serum uric acid, mean [1]: 5.1 mg/dL
Serum uric acid, mean (15 mg single oral, fasted, 24 h): 5.1 mg/dL
Percent change in serum uric acid, mean, time-matched (Day-1) baseline [2]: 0.7%
Serum uric acid, mean [2]: 5.2 mg/dL
Percent change in serum uric acid, mean, time-matched (Day-1) baseline [3]: −1.4%
Serum uric acid, mean [3]: 4.6 mg/dL
Percent change in serum uric acid, mean, time-matched (Day-1) baseline [4]: −4.4%
Serum uric acid, mean [4]: 5.2 mg/dL
Percent change in serum uric acid, mean, time-matched (Day-1) baseline [5]: −1.5%
Serum uric acid, mean [5]: 5.1 mg/dL
Percent change in serum uric acid, mean, time-matched (Day-1) baseline [6]: 10.0%
Serum uric acid, mean [6]: 5.2 mg/dL
Percent change in serum uric acid, mean, time-matched (Day-1) baseline [7]: 3.6%
Serum uric acid, mean [7]: 5.6 mg/dL
Percent change in serum uric acid, mean, time-matched (Day-1) baseline [8]: 7.8%
Serum uric acid, mean [8]: 5.8 mg/dL
Percent change in serum uric acid, mean, time-matched (Day-1) baseline [9]: 13.0%
Serum uric acid, mean [9]: 6.1 mg/dL
Percent change in serum uric acid, mean, time-matched (Day-1) baseline [10]: −26.9%
Serum uric acid, mean [10]: 4.0 mg/dL
Percent change in serum uric acid, mean, time-matched (Day-1) baseline [11]: −37.5%
Serum uric acid, mean [11]: 3.4 mg/dL
Percent change in serum uric acid, mean, time-matched (Day-1) baseline [12]: −38.3%
Serum uric acid, mean [12]: 3.7 mg/dL
Percent change in serum uric acid, mean, time-matched (Day-1) baseline [13]: −36.9%
Serum uric acid, mean [13]: 3.4 mg/dL
Percent change in serum uric acid, mean, time-matched (Day-1) baseline [14]: −34.1%
Serum uric acid, mean [14]: 3.6 mg/dL
Percent change in serum uric acid, mean, time-matched (Day-1) baseline [15]: −32.4%
Serum uric acid, mean [15]: 4.1 mg/dL
Percent change in serum uric acid, mean, time-matched (Day-1) baseline [16]: −28.1%
Serum uric acid, mean [16]: 3.9 mg/dL
Percent change in serum uric acid, mean, time-matched (Day-1) baseline [17]: −21.0%
Serum uric acid, mean [17]: 4.3 mg/dL
Percent change in serum uric acid, mean, time-matched (Day-1) baseline [18]: −17.8%
Serum uric acid, mean [18]: 4.9 mg/dL
Percent change in serum uric acid, mean, time-matched (Day-1) baseline [19]: −11.2%
Serum uric acid, mean [19]: 5.3 mg/dL
Percent change in serum uric acid, mean, time-matched (Day-1) baseline [20]: −12.5%
Serum uric acid, mean [20]: 5.2 mg/dL
Percent change in serum uric acid, mean, time-matched (Day-1) baseline (50 mg single oral, fasted, 6 h): −23.8%
Serum uric acid, mean (50 mg single oral, fasted, 6 h): 4.6 mg/dL
Percent change in serum uric acid, mean, time-matched (Day-1) baseline [21]: −33.6%
Serum uric acid, mean [21]: 3.9 mg/dL
Percent change in serum uric acid, mean, time-matched (Day-1) baseline [22]: −42.4%
Serum uric acid, mean [22]: 3.9 mg/dL
Percent change in serum uric acid, mean, time-matched (Day-1) baseline [23]: −33.5%
Serum uric acid, mean [23]: 4.1 mg/dL
Percent change in serum uric acid, mean, time-matched (Day-1) baseline [24]: −33.9%
Serum uric acid, mean [24]: 3.9 mg/dL
Percent change in serum uric acid, mean, time-matched (Day-1) baseline [25]: −35.8%
Serum uric acid, mean [25]: 4.3 mg/dL
Percent change in serum uric acid, mean, time-matched (Day-1) baseline [26]: −32.1%
Serum uric acid, mean [26]: 4.2 mg/dL
Percent change in serum uric acid, mean, time-matched (Day-1) baseline [27]: −24.2%
Serum uric acid, mean [27]: 4.5 mg/dL
Percent change in serum uric acid, mean, time-matched (Day-1) baseline [28]: −26.1%
Serum uric acid, mean [28]: 5.0 mg/dL
Percent change in serum uric acid, mean, time-matched (Day-1) baseline [29]: −9.6%
Serum uric acid, mean [29]: 6.0 mg/dL
Percent change in serum uric acid, mean, time-matched (Day-1) baseline [30]: −4.6%
Serum uric acid, mean [30]: 6.4 mg/dL
Percent change in serum uric acid, mean, time-matched (Day-1) baseline (50 mg single oral, fed, 6 h): −20.3%
Serum uric acid, mean (50 mg single oral, fed, 6 h): 4.8 mg/dL
Percent change in serum uric acid, mean, time-matched (Day-1) baseline (50 mg single oral, fed, 12 h): −37.7%
Serum uric acid, mean (50 mg single oral, fed, 12 h): 3.9 mg/dL
Percent change in serum uric acid, mean, time-matched (Day-1) baseline (50 mg single oral, fed, 24 h): −41.9%
Serum uric acid, mean (50 mg single oral, fed, 24 h): 3.8 mg/dL
Percent change in serum uric acid, mean, time-matched (Day-1) baseline (50 mg single oral, fed, 30 h): −40.1%
Serum uric acid, mean (50 mg single oral, fed, 30 h): 3.6 mg/dL
Percent change in serum uric acid, mean, time-matched (Day-1) baseline (50 mg single oral, fed, 36 h): −37.4%
Serum uric acid, mean (50 mg single oral, fed, 36 h): 3.9 mg/dL
Percent change in serum uric acid, mean, time-matched (Day-1) baseline (50 mg single oral, fed, 48 h): −32.6%
Serum uric acid, mean (50 mg single oral, fed, 48 h): 4.4 mg/dL
Percent change in serum uric acid, mean, time-matched (Day-1) baseline (50 mg single oral, fed, 54 h): −29.8%
Serum uric acid, mean (50 mg single oral, fed, 54 h): 4.2 mg/dL
Percent change in serum uric acid, mean, time-matched (Day-1) baseline (50 mg single oral, fed, 60 h): −31.3%
Serum uric acid, mean (50 mg single oral, fed, 60 h): 4.3 mg/dL
Percent change in serum uric acid, mean, time-matched (Day-1) baseline (50 mg single oral, fed, 72 h): −23.3%
Serum uric acid, mean (50 mg single oral, fed, 72 h): 5.0 mg/dL
Percent change in serum uric acid, mean, time-matched (Day-1) baseline (50 mg single oral, fed, 96 h): −10.9%
Serum uric acid, mean (50 mg single oral, fed, 96 h): 5.8 mg/dL
Percent change in serum uric acid, mean, time-matched (Day-1) baseline (50 mg single oral, fed, 120 h): −5.8%
Serum uric acid, mean (50 mg single oral, fed, 120 h): 6.1 mg/dL
sUA reduction with versus without food (50 mg single oral, throughout 120 hours post-dose): no difference observed
Percent change in serum uric acid, mean, time-matched (Day-1) baseline [31]: −31.6%
Serum uric acid, mean [31]: 3.5 mg/dL
Percent change in serum uric acid, mean, time-matched (Day-1) baseline [32]: −48.2%
Serum uric acid, mean [32]: 2.6 mg/dL
Percent change in serum uric acid, mean, time-matched (Day-1) baseline [33]: −58.8%
Serum uric acid, mean [33]: 2.3 mg/dL
Percent change in serum uric acid, mean, time-matched (Day-1) baseline [34]: −58.2%
Serum uric acid, mean [34]: 2.2 mg/dL
Percent change in serum uric acid, mean, time-matched (Day-1) baseline [35]: −52.9%
Serum uric acid, mean [35]: 2.4 mg/dL
Percent change in serum uric acid, mean, time-matched (Day-1) baseline [36]: −47.4%
Serum uric acid, mean [36]: 2.9 mg/dL
Percent change in serum uric acid, mean, time-matched (Day-1) baseline [37]: −45.7%
Serum uric acid, mean [37]: 2.8 mg/dL
Percent change in serum uric acid, mean, time-matched (Day-1) baseline [38]: −37.5%
Serum uric acid, mean [38]: 3.1 mg/dL
Percent change in serum uric acid, mean, time-matched (Day-1) baseline [39]: −38.7%
Serum uric acid, mean [39]: 3.4 mg/dL
Percent change in serum uric acid, mean, time-matched (Day-1) baseline [40]: −17.3%
Serum uric acid, mean [40]: 4.6 mg/dL
Percent change in serum uric acid, mean, time-matched (Day-1) baseline [41]: −3.8%
Serum uric acid, mean [41]: 5.4 mg/dL
Percent change in serum uric acid, mean, time-matched (Day-1) baseline [42]: −36.2%
Serum uric acid, mean [42]: 3.7 mg/dL
Percent change in serum uric acid, mean, time-matched (Day-1) baseline [43]: −50.4%
Serum uric acid, mean [43]: 2.6 mg/dL
Percent change in serum uric acid, mean, time-matched (Day-1) baseline [44]: −59.3%
Serum uric acid, mean [44]: 2.5 mg/dL
Percent change in serum uric acid, mean, time-matched (Day-1) baseline [45]: −59.1%
Serum uric acid, mean [45]: 2.3 mg/dL
Percent change in serum uric acid, mean, time-matched (Day-1) baseline [46]: −55.6%
Serum uric acid, mean [46]: 2.4 mg/dL
Percent change in serum uric acid, mean, time-matched (Day-1) baseline [47]: −53.8%
Serum uric acid, mean [47]: 2.8 mg/dL
Percent change in serum uric acid, mean, time-matched (Day-1) baseline [48]: −49.5%
Serum uric acid, mean [48]: 2.9 mg/dL
Percent change in serum uric acid, mean, time-matched (Day-1) baseline [49]: −40.8%
Serum uric acid, mean [49]: 3.1 mg/dL
Percent change in serum uric acid, mean, time-matched (Day-1) baseline [50]: −37.1%
Serum uric acid, mean [50]: 3.8 mg/dL
Percent change in serum uric acid, mean, time-matched (Day-1) baseline [51]: −25.9%
Serum uric acid, mean [51]: 4.5 mg/dL
Percent change in serum uric acid, mean, time-matched (Day-1) baseline [52]: −15.4%
Serum uric acid, mean [52]: 5.2 mg/dL
onset of sUA lowering effect [53]: 6 hours post-dose
time of sUA nadir [53]: 24-36 hours post-dose
time sUA remained lower than baseline levels [53]: up to 72 hours post-dose
dose at which decrease in sUA appeared to reach a plateau (single oral dose, fasted): ≤ 100 mg
